{
  "source": "patent US7709636B2",
  "about": "“Pyrazole sulfonylurea compound and herbicide” (Nissan Chemical Industries, Ltd., priority 2004, dated 2010)",
  "key": {"corn (Zea mays) [1]": {"tested_on": "corn (Zea mays)", "assay": "Herbicidal effect test by foliage treatment", "assay_type": "in vivo", "conditions": "1.6 g/a; foliage treatment after growth of 14 days; 3 weeks after treatment", "how_it_was_run": "(§1)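 Greenhouse-grown plants (25–30 °C) sprayed on foliage 14 days after sowing with water-diluted wettable powder at set formulation rates. Herbicidal effect scored visually 3 weeks after treatment on a graded scale.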"}, "Digitaria adscendes": {"tested_on": "Digitaria adscendes", "assay": "Herbicidal effect test by foliage treatment", "assay_type": "in vivo", "conditions": "1.6 g/a; foliage treatment after growth of 14 days; 3 weeks after treatment", "how_it_was_run": "as §1"}, "Amaranthus retroflexus": {"tested_on": "Amaranthus retroflexus", "assay": "Herbicidal effect test by foliage treatment", "assay_type": "in vivo", "conditions": "1.6 g/a; foliage treatment after growth of 14 days; 3 weeks after treatment", "how_it_was_run": "as §1"}, "Black-grass": {"tested_on": "Black-grass", "assay": "Herbicidal effect test by foliage treatment", "assay_type": "in vivo", "conditions": "1.6 g/a; foliage treatment after growth of 14 days; 3 weeks after treatment", "how_it_was_run": "as §1"}, "Avena fatua": {"tested_on": "Avena fatua", "assay": "Herbicidal effect test by foliage treatment", "assay_type": "in vivo", "conditions": "1.6 g/a; foliage treatment after growth of 14 days; 3 weeks after treatment", "how_it_was_run": "as §1"}, "Polygonum blumei [2]": {"tested_on": "Polygonum blumei", "assay": "Herbicidal effect test by foliage treatment", "assay_type": "in vivo", "conditions": "1.6 g/a; foliage treatment after growth of 14 days; 3 weeks after treatment", "how_it_was_run": "as §1"}, "Stellaria media [3]": {"tested_on": "Stellaria media", "assay": "Herbicidal effect test by foliage treatment", "assay_type": "in vivo", "conditions": "1.6 g/a; foliage treatment after growth of 14 days; 3 weeks after treatment", "how_it_was_run": "as §1"}, "Abutilon avicennae": {"tested_on": "Abutilon avicennae", "assay": "Herbicidal effect test by foliage treatment", "assay_type": "in vivo", "conditions": "1.6 g/a; foliage treatment after growth of 14 days; 3 weeks after treatment", "how_it_was_run": "as §1"}, "soybean (Glycine max)": {"tested_on": "soybean (Glycine max)", "assay": "Herbicidal effect test by foliage treatment", "assay_type": "in vivo", "conditions": "1.6 g/a; foliage treatment after growth of 14 days; 3 weeks after treatment", "how_it_was_run": "as §1"}, "Chenopodium album": {"tested_on": "Chenopodium album", "assay": "Herbicidal effect test by foliage treatment", "assay_type": "in vivo", "conditions": "1.6 g/a; foliage treatment after growth of 14 days; 3 weeks after treatment", "how_it_was_run": "as §1"}, "Ambrosia elatior": {"tested_on": "Ambrosia elatior", "assay": "Herbicidal effect test by foliage treatment", "assay_type": "in vivo", "conditions": "1.6 g/a; foliage treatment after growth of 14 days; 3 weeks after treatment", "how_it_was_run": "as §1"}, "[4]": {"tested_on": "Triticum aestivum (wheat)", "assay": "Herbicidal effect test by foliage treatment", "assay_type": "in vivo", "conditions": "1.6 g/a; foliage treatment after growth of 14 days; 3 weeks after treatment", "how_it_was_run": "as §1"}, "Setaria viridis": {"tested_on": "Setaria viridis", "assay": "Herbicidal effect test by foliage treatment", "assay_type": "in vivo", "conditions": "1.6 g/a; foliage treatment after growth of 14 days; 3 weeks after treatment", "how_it_was_run": "as §1"}, "Beta vulgaris (beet)": {"tested_on": "Beta vulgaris (beet)", "assay": "Herbicidal effect test by foliage treatment", "assay_type": "in vivo", "conditions": "1.6 g/a; foliage treatment after growth of 14 days; 3 weeks after treatment", "how_it_was_run": "as §1"}, "Echinochloa crus-galli [5]": {"tested_on": "Echinochloa crus-galli", "assay": "Herbicidal effect test by foliage treatment", "assay_type": "in vivo", "conditions": "1.6 g/a; foliage treatment after growth of 14 days; 3 weeks after treatment", "how_it_was_run": "as §1"}, "[6]": {"tested_on": "transplanted rice (Oryza sativa)", "assay": "Crop injury test on rice in water leakage condition", "assay_type": "in vivo", "conditions": "0.15 g/a; water leakage 2 cm/day x 3 days; treated on third day after transplantation; 3 weeks after treatment", "protocol": "Crop Injury Test on Rice in Water Leakage Condition A mixed soil of alluvial soil and diluvial soil was placed in a plastic pot perforated at the bottom of 1/10000 are, water was poured therein and mixed, and then rice seedlings at 2.5th leaf stage were transplanted. Water leakage treatment was carried out by placing the pot in a plastic vat, and controlling the amount of water in the vat kept at a condition of 2 cm/day×3 days. The pot was put in a green house at 25 to 30° C., on third day after transplantation, the wettable powder of the present invention prepared according to Formulation Example 1 was diluted with water so as to give a predetermined formulation amount, and the surface of the water was treated with the diluted wettable powder. The crop injury on rice was investigated 3 weeks after treatment with the herbicide according to the criteria indicated in Test Example 1."}, "direct sown rice [7]": {"tested_on": "direct sown rice", "assay": "Herbicidal effect test by soil treatment", "assay_type": "in vivo, Oryza sativa", "conditions": "1.6 g/a, 3 weeks after treatment", "how_it_was_run": "(§2)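 Seeds were sown in sterilized diluvial soil under about 1.5 cm cover, then the soil surface was sprayed uniformly with a water-diluted wettable powder at a predetermined formulation amount. Herbicidal effect was scored per species 3 weeks after treatment.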"}, "direct sown rice [8]": {"tested_on": "direct sown rice", "assay": "Herbicidal effect test by foliage treatment", "assay_type": "in vivo, Oryza sativa", "conditions": "1.6 g/a; foliage treatment after growth of 14 days; 3 weeks after treatment", "how_it_was_run": "as §1"}, "corn (Zea mays) [9]": {"tested_on": "corn (Zea mays)", "assay": "Herbicidal effect test by soil treatment", "assay_type": "in vivo", "conditions": "1.6 g/a, 3 weeks after treatment", "how_it_was_run": "as §2"}, "Polygonum blumei [10]": {"tested_on": "Polygonum blumei", "assay": "Herbicidal effect test by soil treatment", "assay_type": "in vivo", "conditions": "1.6 g/a, 3 weeks after treatment", "how_it_was_run": "as §2"}, "Stellaria media [11]": {"tested_on": "Stellaria media", "assay": "Herbicidal effect test by soil treatment", "assay_type": "in vivo", "conditions": "1.6 g/a, 3 weeks after treatment", "how_it_was_run": "as §2"}, "[12]": {"tested_on": "transplanted rice (Oryza sativa)", "assay": "Herbicidal effect test in submerged condition by treatment before weed-generation (2)", "assay_type": "in vivo", "conditions": "0.3 g/a; submerged paddy soil pot, rice seedlings at 2.5th leaf stage transplanted; 3 weeks after treatment", "protocol": "(§3) Herbicidal Effect Test in Submerged Condition by Treatment Before Weed-Generation (2)\n(§4) Paddy surface soil was placed in a plastic pot of 1/10000 are, water was poured therein and mixed. After seeds of Scirpus juncoides were sown, paddy surface soil was added by 2 cm, and submerged with water, and then seeds of Echinochloa crus-galli, Scirpus juncoides, Monochoria vaginalis, Rotala indica and Lindernia pyxidaria were sown together. In addition, rice seedlings at 2.5th leaf stage were transplanted, and fixed to the paddy surface in a state where the roots were exposed on the other side. On the day when the seeds were sown, the wettable powder of the present invention prepared according to Formulation Example 1 was diluted with water so as to give a predetermined formulation amount, and the surface of the water was treated with the diluted wettable powder. The plants were grown by putting the pot in a green house at 25 to 30° C. The herbicidal effect for each plant was investigated 3 weeks after treatment with the herbicide according to the criteria indicated in Test Example 1."}, "Scirpus juncoides": {"tested_on": "Scirpus juncoides", "assay": "Herbicidal effect test in submerged condition by treatment before weed-generation (2)", "assay_type": "in vivo", "conditions": "0.3 g/a; submerged paddy soil pot, water surface treated on day of sowing; 3 weeks after treatment", "protocol": "as §3, §4"}, "Rotala indica": {"tested_on": "Rotala indica", "assay": "Herbicidal effect test in submerged condition by treatment before weed-generation (2)", "assay_type": "in vivo", "conditions": "0.3 g/a; submerged paddy soil pot, water surface treated on day of sowing; 3 weeks after treatment", "protocol": "as §3, §4"}, "Lindernia pyxidaria": {"tested_on": "Lindernia pyxidaria", "assay": "Herbicidal effect test in submerged condition by treatment before weed-generation (2)", "assay_type": "in vivo", "conditions": "0.3 g/a; submerged paddy soil pot, water surface treated on day of sowing; 3 weeks after treatment", "protocol": "as §3, §4"}, "Monochoria vaginalis": {"tested_on": "Monochoria vaginalis", "assay": "Herbicidal effect test in submerged condition by treatment before weed-generation (2)", "assay_type": "in vivo", "conditions": "0.3 g/a; submerged paddy soil pot, water surface treated on day of sowing; 3 weeks after treatment", "protocol": "as §3, §4"}, "Echinochloa crus-galli [13]": {"tested_on": "Echinochloa crus-galli", "assay": "Herbicidal effect test in submerged condition by treatment before weed-generation (2)", "assay_type": "in vivo", "conditions": "0.3 g/a; submerged paddy soil pot, water surface treated on day of sowing; 3 weeks after treatment", "protocol": "as §3, §4"}, "[14]": {"tested_on": "rice transplanted at a depth of 0 cm", "assay": "Herbicidal effect test in submerged condition by treatment before weed-generation (2)", "assay_type": "in vivo, Oryza sativa", "conditions": "0.3 g/a; submerged paddy soil pot, seedlings fixed to paddy surface with roots exposed; 3 weeks after treatment", "protocol": "as §3, §4"}},
  "data": [
    {"smiles": "COc1cc(OC)nc(NC(=O)NS(=O)(=O)c2c(C3=NOCC(C)O3)c(Cl)nn2C)n1", "note": "(stereo not shown) [Compound 1, N-((4,6-dimethoxypyrimidin-2-yl)aminocarbonyl)-3-chloro-1-methyl-4-(5-methyl-5H,6H-1,4,2-dioxadin-3-yl)pyrazole-5-sulfonamide]", "values": [
      {"measurement": "herbicidal effect, b: corn (Zea mays)", "setting": "corn (Zea mays) [1]", "value": "5 (Herbicidal rate 90% or more (almost complete death))"},
      {"measurement": "herbicidal effect, D: Digitaria adscendes", "setting": "Digitaria adscendes", "value": "5 (Herbicidal rate 90% or more (almost complete death))"},
      {"measurement": "herbicidal effect, J: Amaranthus retroflexus", "setting": "Amaranthus retroflexus", "value": "5 (Herbicidal rate 90% or more (almost complete death))"},
      {"measurement": "herbicidal effect, G: Black-grass", "setting": "Black-grass", "value": "4 (Herbicidal rate 70% or more and less than 90%)"},
      {"measurement": "herbicidal effect, F: Avena fatua", "setting": "Avena fatua", "value": "1 (Herbicidal rate 5% or more and less than 20%)"},
      {"measurement": "herbicidal effect, L: Polygonum blumei", "setting": "Polygonum blumei [2]", "value": "5 (Herbicidal rate 90% or more (almost complete death))"},
      {"measurement": "herbicidal effect, M: Stellaria media", "setting": "Stellaria media [3]", "value": "5 (Herbicidal rate 90% or more (almost complete death))"},
      {"measurement": "herbicidal effect, H: Abutilon avicennae", "setting": "Abutilon avicennae", "value": "5 (Herbicidal rate 90% or more (almost complete death))"},
      {"measurement": "herbicidal effect, c: soybean (Glycine max)", "setting": "soybean (Glycine max)", "value": "5 (Herbicidal rate 90% or more (almost complete death))"},
      {"measurement": "herbicidal effect, K: Chenopodium album", "setting": "Chenopodium album", "value": "4 (Herbicidal rate 70% or more and less than 90%)"},
      {"measurement": "herbicidal effect, I: Ambrosia elatior", "setting": "Ambrosia elatior", "value": "5 (Herbicidal rate 90% or more (almost complete death))"},
      {"measurement": "herbicidal effect, e: Triticum aestivum (wheat)", "setting": "[4]", "value": "2 (Herbicidal rate 20% or more and less than 40%)"},
      {"measurement": "herbicidal effect, E: Setaria viridis", "setting": "Setaria viridis", "value": "3 (Herbicidal rate 40% or more and less than 70%)"},
      {"measurement": "herbicidal effect, f: Beta vulgaris (beet)", "setting": "Beta vulgaris (beet)", "value": "5 (Herbicidal rate 90% or more (almost complete death))"},
      {"measurement": "herbicidal effect, A: Echinochloa crus-galli", "setting": "Echinochloa crus-galli [5]", "value": "5 (Herbicidal rate 90% or more (almost complete death))"},
      {"measurement": "crop injury on rice, a: transplanted rice (Oryza sativa)", "setting": "[6]", "value": "0 (Herbicidal rate 5% or less (little effect))"},
      {"measurement": "herbicidal effect, d: direct sown rice", "setting": "direct sown rice [7]", "value": "2 (Herbicidal rate 20% or more and less than 40%)"},
      {"measurement": "herbicidal effect, d: direct sown rice", "setting": "direct sown rice [8]", "value": "0 (Herbicidal rate 5% or less (little effect))"},
      {"measurement": "herbicidal effect, b: corn (Zea mays)", "setting": "corn (Zea mays) [9]", "value": "5 (Herbicidal rate 90% or more (almost complete death))"},
      {"measurement": "herbicidal effect, L: Polygonum blumei", "setting": "Polygonum blumei [10]", "value": "5 (Herbicidal rate 90% or more (almost complete death))"},
      {"measurement": "herbicidal effect, M: Stellaria media", "setting": "Stellaria media [11]", "value": "5 (Herbicidal rate 90% or more (almost complete death))"},
      {"measurement": "herbicidal effect, a: transplanted rice (Oryza sativa)", "setting": "[12]", "value": "0 (Herbicidal rate 5% or less (little effect))"},
      {"measurement": "herbicidal effect, B: Scirpus juncoides", "setting": "Scirpus juncoides", "value": "5 (Herbicidal rate 90% or more (almost complete death))"},
      {"measurement": "herbicidal effect, N: Rotala indica", "setting": "Rotala indica", "value": "5 (Herbicidal rate 90% or more (almost complete death))"},
      {"measurement": "herbicidal effect, O: Lindernia pyxidaria", "setting": "Lindernia pyxidaria", "value": "5 (Herbicidal rate 90% or more (almost complete death))"},
      {"measurement": "herbicidal effect, C: Monochoria vaginalis", "setting": "Monochoria vaginalis", "value": "5 (Herbicidal rate 90% or more (almost complete death))"},
      {"measurement": "herbicidal effect, A: Echinochloa crus-galli", "setting": "Echinochloa crus-galli [13]", "value": "5 (Herbicidal rate 90% or more (almost complete death))"},
      {"measurement": "herbicidal effect, g: rice transplanted at a depth of 0 cm", "setting": "[14]", "value": "0 (Herbicidal rate 5% or less (little effect))"}
    ]}
  ]
}
